Results on two molecules are retold here after publication PMC7127754 (Bioorganic & Medicinal Chemistry, 2008).

SMILES strings stand for the structures. Where only a bound is given, the exact number is not on record here.

This test addresses SARS-CoV 3CL protease (Severe acute respiratory syndrome coronavirus, UniProt P0C6X7). As to the kind of experiment: biochemical. The conditions noted are these: IC50 (inhibition of SARS-CoV 3CL protease).

Take `CCCCCCCCC(=O)N[C@@H](CC(C)C)C(=O)NC(Cc1ccccc1)C(=O)C(F)(F)F` (mixture of isomers) [Compound 5g, 3-{N-[N-CH3(CH2)7(C?O)-L-Leu]}-4-phenyl-1,1,1-trifluorobutan-2-one]: the IC50 was above 50 µM. The result for `C[C@H](NC(=O)CC[C@H](NC(=O)OC(C)(C)C)C(=O)OC(C)(C)C)C(=O)NCC(=O)C(F)(F)F` [Compound 5d, 3-{N-[N-tert-Butoxycarbonyl-L-γGlu(OtBu)-L-Ala]}-1,1,1-trifluoropropan-2-one] reads 40 µM.
